# Results from patent publication US4725578A, “Compounds having therapeutic effect and the preparation thereof” (Tobishi Pharmaceutical Co., Ltd., priority 1986, dated 1988).
# “Also recorded” adds a separate entry of the source.
# Key:
# P-388 cells = assay: Antineoplastic action against implanted P-388 cells (ip-ip), survival T/C; type: in vivo, CDFl mice; details: for T/C % (Treatment/Control %): Table 6, P388, intraperitoneal
# Method: To the peritoneal cavity of each group of mice consisting of six CDFl mice per group, 10^6 /0.1 ml of P-388 cells or 10^5 /0.1 ml of L-1210 cells were implanted. […]
# In the Table, the symbol T/C % means Treatment/Control %, that is the increase in life when the control is 100. […] This method is used in the screening of U.S. National Cancer Institute.
# (§1) In Table 7, the symbol "i.P.-i.P." means that the tumor cells are implanted intraperitoneally and the compounds being tested are also administered intraperitoneally. The symbol "TR" is the therapeutic ratio obtained by dividing the dose which provides a maximum T/C value, by the dose which provides a minimum T/C value.
# L-1210 cells = assay: Antineoplastic action against implanted L-1210 cells (ip-ip), survival T/C; type: in vivo, CDFl mice
# Method: In this animal test, the antineoplastic action against the implanted tumor was examined in lower animals, in vivo, in respect of the compounds according to the present invention, by using CDFl mice.
# To the peritoneal cavity of each group of mice consisting of six CDFl mice per group, 10^6 /0.1 ml of P-388 cells or 10^5 /0.1 ml of L-1210 cells were implanted. […] While to the control groups of CDFl mice, P-388 and L-1210 cells were implanted in the same manner and they were bred without administration of the compounds.
# (§2) In the Table, the symbol T/C % means Treatment/Control %, that is the increase in life when the control is 100. The values are obtained by implanting tumor cells to groups of mice (or rats), administering the compound being tested in various amounts every 24 hours after the implantation of the tumor cells and then calculating the ratio, the median survival time of the group to which the compound has been administered to the survival of the control, multiplied by a factor of 100. This method is used in the screening of U.S. National Cancer Institute.
# as §1
# B-16 melanoma = assay: B16 melanoma (ip-ip), survival T/C; type: in vivo, mice
# Method: as §2, with “Institute. […]” for “Institute.”
# as §1
# MM2 = MM2 (ip-ip), survival T/C; type: in vivo, mice; details: for T/C / mice living more than 60 days (60<): additional tests, MM2 (ip-ip)
# Method: as §2, with “Institute. […]” for “Institute.”
# as §1
# The term in Table 7, last column "3/6 60<", means that 3 mice out of 6 mice continue to live more than 60 days after the implantation of the tumor cells.
# [1] = Toxicity test, lethal dose (Litchfield-Wilcoxon); type: in vivo, male 4-weeks CD-1 (ICR) mice; details: suspension in 0.5% CMC, 7 days observation
# Method: With respect to the compounds of this invention, the lethal dose was determined as follows.
# By using male 4-weeks CD-1 (ICR) mice consisting of 5 to 10 mice per group, the desired amount of each compound of this invention was suspended in 0.5% CMC solution and the resultant suspension was administered to each mouse intraperitoneally or intravenously. Observing the life or death as well as the general symptome during 7 days after the administration of the compounds, the value of LD50 for each compounds was estimated from the lethal population observed on the basis of the Litchfield-Wilcoxon method.
# P 388 [2] = assay: P 388 (ip-iv), survival T/C; type: in vivo, mice
# Method: as §2
# (§3) In Table 9, "iv" and "sc" means that the administration of the compounds is carried out intravenously and the implantation of the tumor cells is carried out subcutaneously.
# Erlich carcinoma = Erlich carcinoma (sc-ip), inhibition; type: in vivo
# Lewis Lung Carcinoma = Lewis Lung Carcinoma (sc-ip), inhibition; type: in vivo
# Colon. 38 = Colon. 38 (sc-ip), inhibition; type: in vivo
# [3] = Neuropharmacological multidimentional observation (modified Arwin and Smith method); type: in vivo, 4-weeks CD-1 (IRC) mice; details: intraperitoneal, 1 to 20 mg/kg, observed every 30 minutes for 180 minutes, compared with patterns of known medicines
# Method: In this test, other pharmacological effects which may be obtained by these compounds were investigated.
# Each compound of the invention was intraperitoneally administered to 4-weeks CD-1 (IRC) mice (Nippon Charles Liver K.K.) in the dose of 1 to 20 mg/kg with using mice groups consisting of three mice per group. […] The observation was carried out according to the modified Arwin method and Smith method, i.e., neuropharmacological multidimentional observation method.
# Making a comparison between the symptom observed and the pattern of the pharmacological action due to the known medicines, it has been discovered that each compound of the invention has the following pharmacological effect.
# Colon 26 = Colon 26 (ip-ip), survival T/C; type: in vivo
# Method: as §2
# P 388 [4] = assay: P 388 (sc-iv), survival T/C; type: in vivo, mice
# Method: as §2, §3
compound,measurement,setting,value
COc1ccc(CC2C(=O)NC(C)C(=O)N(C)C3Cc4ccc(cc4)Oc4cc(ccc4OC(C)=O)CC(C(=O)NC(C)C(=O)NC(C)C(=O)N2C)N(C)C3=O)cc1 (stereo not shown) [Ex. 22],T/C % (Treatment/Control %),P-388 cells; dose 0.05 mg/kg,133.3%
same,T/C % (Treatment/Control %),P-388 cells; dose 0.5 mg/kg,155.6%
same,T/C % (Treatment/Control %),P-388 cells; dose 2 mg/kg,168.9%
same,T/C % (Treatment/Control %),P-388 cells; dose 10 mg/kg,194.7%
same,P388 (i.P. - i.P.) T/C (%),"P-388 cells; Table 7, dose 0.05 mg/kg",133.3%
same,P388 (i.P. - i.P.) T/C (%),"P-388 cells; Table 7, dose 0.5 mg/kg",155.6%
same,P388 (i.P. - i.P.) T/C (%),"P-388 cells; Table 7, dose 2 mg/kg",168.9%
same,P388 (i.P. - i.P.) T/C (%),"P-388 cells; Table 7, dose 5 mg/kg",175.8%
same,P388 (i.P. - i.P.) T/C (%),"P-388 cells; Table 7, dose 10 mg/kg",194.7%
same,L1210 (i.P. - i.P.) T/C (%),"L-1210 cells; Table 7, dose 0.05 mg/kg",100.9%
same,L1210 (i.P. - i.P.) T/C (%),"L-1210 cells; Table 7, dose 0.5 mg/kg",110.0%
same,L1210 (i.P. - i.P.) T/C (%),"L-1210 cells; Table 7, dose 2 mg/kg",114.4%
same,L1210 (i.P. - i.P.) T/C (%),"L-1210 cells; Table 7, dose 5 mg/kg",120.0%
same,L1210 (i.P. - i.P.) T/C (%),"L-1210 cells; Table 7, dose 10 mg/kg",128.9%
same,effectiveness against B-16 melanoma,B-16 melanoma; (see Table 7),effective
same,B16 (i.P. - i.P.) T/C (%),"B-16 melanoma; Table 7, dose 0.5 mg/kg",116.9%
same,B16 (i.P. - i.P.) T/C (%),"B-16 melanoma; Table 7, dose 2 mg/kg",128.5%
same,B16 (i.P. - i.P.) T/C (%),"B-16 melanoma; Table 7, dose 4 mg/kg",147.8%
same,B16 (i.P. - i.P.) T/C (%),"B-16 melanoma; Table 7, dose 8 mg/kg",141.1%
same,effectiveness against MM2,MM2; (see Table 7),effective
same,MM2 (i.P. - i.P.) T/C (%),"MM2; Table 7, dose 0.5 mg/kg",102.5%
same,MM2 (i.P. - i.P.) T/C (%),"MM2; Table 7, dose 2 mg/kg",109.2%
same,MM2 (i.P. - i.P.) T/C (%),"MM2; Table 7, dose 5 mg/kg",117.8%
same,MM2 (i.P. - i.P.) T/C (%),"MM2; Table 7, dose 10 mg/kg",120.9%
same,LD50 and 95% Confidence Limit,[1]; intraperitoneal,18.4(16.9-20.0) mg/kg
same,LD50 and 95% Confidence Limit,[1]; intravenous,20.0(15.2-26.3) mg/kg
same,T/C,P 388 [2]; 1.11 mg/kg × 9,112.5%
same,T/C,P 388 [2]; 5.56 mg/kg × 9,171.5%
same,Inhibition,"Erlich carcinoma; 4 mg/kg × 11, after 14 days",46.9%
same,Inhibition,"Lewis Lung Carcinoma; 8 mg/kg × 11, after 17 days",65.4%
same,Inhibition,"Colon. 38; 8 mg/kg × 11, after 17 days",51.9%
same,Pharmacological effect estinated,[3]; listed as Acetic acid ester of TPC-A,emetic action; also recorded: psychotropic action; also recorded: antidiuretic action
COc1ccc(C[C@H]2C(=O)N[C@@H](C)C(=O)N(C)[C@H]3Cc4ccc(cc4)Oc4cc(ccc4OC)C[C@@H](C(=O)N[C@H](C)C(=O)N[C@@H](C)C(=O)N2C)N(C)C3=O)cc1 [Methylether of TPC-A],T/C % (Treatment/Control %),"P-388 cells; dose 0.01 mg/kg (printed in the 0.05 column with note ""dose, 0.01"")",130.1%
same,T/C % (Treatment/Control %),P-388 cells; dose 0.5 mg/kg,156.7%
same,T/C % (Treatment/Control %),P-388 cells; dose 2 mg/kg,164.2%
same,T/C % (Treatment/Control %),P-388 cells; dose 4 mg/kg,173.6%
same,P388 (i.P. - i.P.) T/C (%),"P-388 cells; Table 7, dose 0.01 mg/kg",130.1%
same,P388 (i.P. - i.P.) T/C (%),"P-388 cells; Table 7, dose 0.5 mg/kg",156.7%
same,P388 (i.P. - i.P.) T/C (%),"P-388 cells; Table 7, dose 1 mg/kg",159.9%
same,P388 (i.P. - i.P.) T/C (%),"P-388 cells; Table 7, dose 2 mg/kg",164.2%
same,P388 (i.P. - i.P.) T/C (%),"P-388 cells; Table 7, dose 4 mg/kg",173.6%
same,L1210 (i.P. - i.P.) T/C (%),"L-1210 cells; Table 7, dose 0.01 mg/kg",105.6%
same,L1210 (i.P. - i.P.) T/C (%),"L-1210 cells; Table 7, dose 0.5 mg/kg",118.6%
same,L1210 (i.P. - i.P.) T/C (%),"L-1210 cells; Table 7, dose 1 mg/kg",120.7%
same,L1210 (i.P. - i.P.) T/C (%),"L-1210 cells; Table 7, dose 2 mg/kg",129.3%
same,L1210 (i.P. - i.P.) T/C (%),"L-1210 cells; Table 7, dose 5 mg/kg",137.3%
same,B16 (i.P. - i.P.) T/C (%),"B-16 melanoma; Table 7, dose 0.25 mg/kg",133.8%
same,B16 (i.P. - i.P.) T/C (%),"B-16 melanoma; Table 7, dose 1 mg/kg",135.3%
same,B16 (i.P. - i.P.) T/C (%),"B-16 melanoma; Table 7, dose 2 mg/kg",139.1%
same,B16 (i.P. - i.P.) T/C (%),"B-16 melanoma; Table 7, dose 4 mg/kg",143.0%
same,MM2 (i.P. - i.P.) T/C (%),"MM2; Table 7, dose 0.2 mg/kg",103.1%
same,MM2 (i.P. - i.P.) T/C (%),"MM2; Table 7, dose 1 mg/kg",103.1%
same,MM2 (i.P. - i.P.) T/C (%),"MM2; Table 7, dose 2 mg/kg",118.4%
same,MM2 (i.P. - i.P.) T/C (%),"MM2; Table 7, dose 5 mg/kg",90.8%
same,LD50 and 95% Confidence Limit,[1]; intraperitoneal,10.0(7.0-14.3) mg/kg
same,LD50 and 95% Confidence Limit,[1]; intravenous,16.5(12.6-21.5) mg/kg
same,T/C,P 388 [2]; 0.56 mg/kg × 9,115.7%
same,T/C,P 388 [2]; 2.22 mg/kg × 9,160.8%
same,T/C,Colon 26; 1 mg/kg × 9,113.6%
same,T/C,Colon 26; 2 mg/kg × 9,125.0%
same,T/C,Colon 26; 4 mg/kg × 9,125.9%
same,Inhibition,"Erlich carcinoma; 2 mg/kg × 11, after 14 days",60.5%
same,Inhibition,"Lewis Lung Carcinoma; 4 mg/kg × 11, after 17 days",51.1%
same,Inhibition,"Colon. 38; 4 mg/kg × 11, after 17 days",70.1%
same,Pharmacological effect estinated,[3],emetic action; also recorded: anorexigenic action
COc1ccc(C[C@H]2C(=O)N[C@H](C)C(=O)N(C)[C@@H]3Cc4ccc(cc4)Oc4cc(ccc4O)C[C@H](C(=O)N[C@@H](C)C(=O)N[C@@H](C)C(=O)N2C)N(C)C3=O)cc1.COc1ccc(C[C@H]2C(=O)N[C@H](C)C(=O)N(C)[C@@H]3Cc4ccc(cc4)Oc4cc(ccc4O)C[C@H](C(=O)N[C@@H](C)C(=O)N[C@@H](C)C(=O)N2C)N(C)C3=O)cc1.COc1ccc(C[C@H]2C(=O)N[C@H](C)C(=O)N(C)[C@@H]3Cc4ccc(cc4)Oc4cc(ccc4O)C[C@H](C(=O)N[C@@H](C)C(=O)N[C@@H](C)C(=O)N2C)N(C)C3=O)cc1.COc1ccc(C[C@H]2C(=O)N[C@H](C)C(=O)N(C)[C@@H]3Cc4ccc(cc4)Oc4cc(ccc4O)C[C@H](C(=O)N[C@@H](C)C(=O)N[C@@H](C)C(=O)N2C)N(C)C3=O)cc1.O.O.O.O.O [TPC-A],T/C % (Treatment/Control %),P-388 cells; dose 10 mg/kg,187.4%
same,T/C,MM2; 2.78 mg/kg × 9,138.7%
same,T/C,MM2; 5.56 mg/kg × 9,231.2%
same,mice living more than 60 days (60<),MM2; 5.56 mg/kg × 9,2/6
same,T/C,MM2; 6.94 mg/kg × 9,184.3%
same,mice living more than 60 days (60<),MM2; 6.94 mg/kg × 9,1/7
same,LD50 and 95% Confidence Limit,[1]; intravenous,34.0(28.1-41.2) mg/kg
same,T/C,P 388 [2]; 5.56 mg/kg × 9,121.4%
same,T/C,P 388 [4]; 5 mg/kg × 7,179.6%
same,mice living more than 60 days (60<),P 388 [4]; 5 mg/kg × 7,2/7
same,T/C,P 388 [4]; 7 mg/kg × 7,153.7%
same,mice living more than 60 days (60<),P 388 [4]; 7 mg/kg × 7,1/7
same,T/C,P 388 [4]; 10 mg/kg × 7,127.8%
same,Pharmacological effect estinated,[3],emetic action; also recorded: anorexigenic action; also recorded: psychotropic action; also recorded: vasoconstrictive; also recorded: papaverine action; also recorded: antiper-
